This note sets out measurements from BindingDB's records for doi:10.1021/ml200284s (2012).

This test can be described thus: Inhibition of dynamin1-mediated endocytosis in human U2OS cells assessed as inhibition of Texas red-Tf uptake incubated for 30 mins prior to Texas red-Tf addition measured after 8 mins by receptor-mediated endocytosis assay.
Turning to `C=CCN1C(=O)/C(=C/c2ccc(OCCCN(C)C)cc2)SC1=S`, the IC50 turned out to be 5.9 µM.
In the case of `O=C1N=C(S)SC1=Cc1cc(Cl)cc(Cl)c1` it was 18.1 µM; in that of `O=C(O)CN1C(=O)/C(=C/c2csc3ccc(Cl)cc23)SC1=S`, above 100 µM.
